# Measured values from PMC6858373 (Scientific Reports, 2019).
# Read-outs that look alike come from different tables or passages of the source.
# Legend:
# [1] = target: full-length P. pyralis luciferase (Photinus pyralis, UniProt P08659, K549A/L550V/N119G/N50D/S548I); type: cell-based
# [2] = target: T1, FGF14:Nav1.6 C-tail complex (Homo sapiens, UniProt Q92915+Q9UQD0); assay: Split-luciferase complementation assay (LCA) in Clone V double stable HEK293 cells; type: cell-based; settings: for Split Luciferase Assay % Lum Set 1 / Split Luciferase Assay Z-score Set 1: biological replicate Set 1; for Split Luciferase Assay % Lum Set 1 / Split Luciferase Assay %Lum Set 2: normalized to on-plate 0.3% DMSO controls (n=16 per plate); for Split Luciferase Assay %Lum Set 2 / Split Luciferase Assay Z-score Set 2: biological replicate Set 2; for Split Luciferase Assay Z-score Set 1 / Split Luciferase Assay Z-score Set 2: normalized to on-plate 0.3% DMSO controls; for Split Luciferase Assay %Lum Avg: average of Set 1 and Set 2, normalized to 0.3% DMSO controls; for Z-score (LCA primary screening): 30 µM, average of primary screening (n = 2), vs on-plate 0.3% DMSO
# T1 construct: polymerase chain reaction (PCR) amplification of the FGF14 open reading frame (nt 1–855); C-terminal fragment of Nav1.6 (amino acids 1763–1976) fused with CD4ΔC-tail (amino acids 1–395); expressed in transfected cells
# [3] = CC_NCI screening, full-length luciferase counter-screen luminescence, normalized to on-plate 0.3% DMSO controls
# [4] = CC_NCI screening, full-length luciferase counter-screen, normalized to on-plate 0.3% DMSO controls
# [5] = CC_NCI screening, LCA luminescence
# [6] = CC_NCI screening, normalized to on-plate 0.3% DMSO controls
# T1 sequence (Q92915 1-252 isoform Q92915-2): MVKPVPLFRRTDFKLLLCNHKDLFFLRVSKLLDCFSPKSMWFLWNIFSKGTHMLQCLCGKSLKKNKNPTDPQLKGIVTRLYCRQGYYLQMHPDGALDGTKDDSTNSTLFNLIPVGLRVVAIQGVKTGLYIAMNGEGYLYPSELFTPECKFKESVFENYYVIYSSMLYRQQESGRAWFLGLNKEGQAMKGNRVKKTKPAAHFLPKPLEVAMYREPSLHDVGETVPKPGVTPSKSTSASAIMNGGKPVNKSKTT
# T1 sequence (Q9UQD0 1763-1976 limits assumed): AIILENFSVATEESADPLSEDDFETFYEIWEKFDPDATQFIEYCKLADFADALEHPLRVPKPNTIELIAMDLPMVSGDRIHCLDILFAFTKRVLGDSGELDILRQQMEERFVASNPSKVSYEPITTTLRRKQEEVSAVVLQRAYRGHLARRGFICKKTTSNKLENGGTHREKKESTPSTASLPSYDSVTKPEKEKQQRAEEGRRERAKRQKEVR
# Sequence of full-length P. pyralis luciferase (P08659 whole entry N50D/N119G/S548I/K549A/L550V, looked up): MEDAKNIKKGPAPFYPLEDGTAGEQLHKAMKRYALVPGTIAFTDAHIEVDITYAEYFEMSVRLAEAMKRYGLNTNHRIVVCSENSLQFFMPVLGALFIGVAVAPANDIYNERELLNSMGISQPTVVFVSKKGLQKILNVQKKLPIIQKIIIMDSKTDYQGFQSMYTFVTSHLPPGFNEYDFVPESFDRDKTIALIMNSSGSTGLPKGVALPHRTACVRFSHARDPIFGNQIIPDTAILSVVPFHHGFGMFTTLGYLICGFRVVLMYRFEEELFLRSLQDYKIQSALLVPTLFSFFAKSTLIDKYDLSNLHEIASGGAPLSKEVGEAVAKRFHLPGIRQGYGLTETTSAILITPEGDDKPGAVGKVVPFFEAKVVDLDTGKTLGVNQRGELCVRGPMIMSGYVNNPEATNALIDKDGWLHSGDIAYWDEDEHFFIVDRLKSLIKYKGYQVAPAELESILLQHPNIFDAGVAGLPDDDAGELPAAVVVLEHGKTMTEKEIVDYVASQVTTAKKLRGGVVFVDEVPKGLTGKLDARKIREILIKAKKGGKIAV
SMILES,"Luciferase Assay % Lum [1, 3] [%]","Luciferase Assay Z-score [1, 4]","Toxicity Assay % Fluor (Clone V cells; human, 16 h, 30 µM) [%]","Toxicity Assay Z-score (Clone V cells; human, 16 h, 30 µM)","Split Luciferase Assay % Lum Set 1 [2, 5] [%]","Split Luciferase Assay %Lum Set 2 [2, 5] [%]","Split Luciferase Assay Z-score Set 1 ([2]; CC_NCI screening, LCA)","Split Luciferase Assay Z-score Set 2 ([2]; CC_NCI screening, LCA)",Split Luciferase Assay %Lum Avg ([2]; CC_NCI screening) [%],further results
COc1cc([C@@H]2c3cc4c(cc3[C@@H](O[C@@H]3O[C@@H]5CO[C@@H](C)O[C@H]5[C@H](O)[C@H]3O)[C@H]3COC(=O)[C@H]23)OCO4)cc(OC)c1O [Etoposide],103.75,0.48,88.49,-1.61,77.51,72.82,-1.82,-2.21,75.17,–
"O=c1[nH]c(=O)n([C@H]2C[C@H](O)[C@@H](CO)O2)cc1F [Floxuridine, reference compound]",100.29,0.04,90.13,-1.38,154.69,–,4.42,3.04,146.01,"Z-score (LCA primary screening) ([2]; 384-well): 3.73; EMax (% Luminescence) ([2]; agonists, Clone V cells, 384-well, normalized to DMSO): 146.01 % Luminescence; EC50 ([2]; estimated, 8-point dose response 0.25-30 µM, n = 4 per concentration, library compounds, read-out: EC50): 2460 nM"
Nc1nc(F)nc2c1ncn2[C@@H]1O[C@H](COP(=O)(O)O)[C@@H](O)[C@@H]1O [Fludarabine phosphate],119.94,2.55,95.37,-0.65,112.30,119.64,0.99,1.60,115.97,–
COC1=C2C[C@@H](C)C[C@H](OC)[C@H](O)[C@@H](C)/C=C(\C)[C@H](OC(N)=O)[C@@H](OC)/C=C\C=C(/C)C(=O)NC(=CC1=O)C2=O [GELDENAMYCIN],102.35,0.30,–,–,70.99,86.35,-2.34,-1.11,78.67,Toxicity Assay % Fluor (Clone V cells): 94.70%; Toxicity Assay Z-score (Clone V cells): -0.74
CCc1cc(Nc2nccc(-c3c(-c4ccc(OC)c(C(=O)Nc5c(F)cccc5F)c4)nc4ccccn34)n2)c(OC)cc1N1CCC(N2CCN(S(C)(=O)=O)CC2)CC1 [GSK1904529A],86.97,-1.67,–,–,116.65,92.59,1.35,-0.60,104.62,Toxicity Assay % Fluor (Clone V cells): 100.76%; Toxicity Assay Z-score (Clone V cells): 0.11
CCn1c(-c2nonc2N)nc2cnc(Oc3cccc(NC(=O)c4ccc(OCCN5CCOCC5)cc4)c3)cc21 [GSK 269962A],79.80,-2.59,101.41,0.20,26.42,31.21,-5.95,-5.60,28.81,–
Cn1cc(/C=C2\C(=O)Nc3cccnc32)c2ccccc21 [GW 441756],–,–,–,–,–,–,–,–,–,"Luciferase Assay % Lum (full-length luciferase counter-screen) [1, 6]: 109.93%; Luciferase Assay Z-score (full-length luciferase counter-screen) [1, 6]: 1.27; Toxicity Assay % Fluor (CTB cell viability fluorescence) (Clone V cells): 107.67%; Toxicity Assay Z-score (CTB cell viability) (Clone V cells): 1.07; Split Luciferase Assay Z-score Set 1 ([2]; CC_NCI screening): -0.50; Split Luciferase Assay % Lum Set 1 ([2]; CC_NCI screening): 93.82%; Split Luciferase Assay Z-score Set 2 ([2]; CC_NCI screening): -2.30; Split Luciferase Assay %Lum Set 2 ([2]; CC_NCI screening): 71.78%; Split Luciferase Assay %Lum Avg [2]: 82.80%"
COc1cc2ncn(-c3cc(OCc4ccccc4C(F)(F)F)c(C(N)=O)s3)c2cc1OC [GW 843682X],102.89,0.37,106.44,0.90,163.39,170.61,5.12,5.75,167.00,–
COc1cc2ncnc(Nc3ccc(F)c(Cl)c3)c2cc1OCCCN1CCOCC1 [Gefitinib],–,–,87.95,-1.68,97.08,102.99,-0.24,0.24,100.03,Luciferase Assay % Lum [1]: 85.80%
"O=S(=O)(NCCNC/C=C/c1ccc(Br)cc1)c1cccc2cnccc12 [H-89, reference compound]",80.98,-2.44,–,–,14.46,17.69,-6.91,-6.70,16.07,"Toxicity Assay % Fluor (Clone V cells): 91.80%; Toxicity Assay Z-score (Clone V cells): -1.15; Z-score (LCA primary screening) ([2]; 384-well): −6.81; dose-response behavior of repurchased compounds ([2]; 10-point dose response 0.25-50 µM, Clone V cells): purely inhibitory effects; IMin (% Luminescence) ([2]; antagonists, Clone V cells, 384-well, normalized to DMSO): 16.07 % Luminescence; action toward the FGF14:Nav1.6 C-tail interaction ([2]; dose-dependency validation using fresh compound samples): acted as antagonists; IC50 ([2]; estimated, 8-point dose response 0.25-30 µM, n = 4 per concentration, library compounds, read-out: IC50): 12200 nM; IC50 ([2]; repurchased compounds, 10-point dose response 0.25-50 µM, n = 8 per concentration, Clone V cells, 384-well, read-out: in-cell IC50): 1900 nM"
CCOC(=O)C1=C(N)Oc2ccc(Br)cc2C1C(C#N)C(=O)OCC (stereo not drawn) [HA14-1],99.78,-0.03,–,–,80.77,97.79,-1.55,-0.18,89.28,Toxicity Assay % Fluor (Clone V cells): 102.67%; Toxicity Assay Z-score (Clone V cells): 0.37
NC(=O)NO [Hydroxyurea],–,–,–,–,–,–,–,–,–,"Luciferase Assay % Lum (full-length luciferase counter-screen) [1, 6]: 102.60%; Luciferase Assay Z-score (full-length luciferase counter-screen) [1, 6]: 0.33; Toxicity Assay % Fluor (CTB cell viability fluorescence) (Clone V cells): 115.47%; Toxicity Assay Z-score (CTB cell viability) (Clone V cells): 2.16; Split Luciferase Assay Z-score Set 1 ([2]; CC_NCI screening): -0.85; Split Luciferase Assay % Lum Set 1 ([2]; CC_NCI screening): 89.47%; Split Luciferase Assay Z-score Set 2 ([2]; CC_NCI screening): 1.01; Split Luciferase Assay %Lum Set 2 ([2]; CC_NCI screening): 112.35%; Split Luciferase Assay %Lum Avg [2]: 100.91%"
Cn1cc(CNCC2CCN(c3ncc(C(=O)NO)cn3)CC2)c2ccccc21 [JNJ-26481585],97.58,-0.31,–,–,112.30,109.23,0.99,0.75,110.77,Toxicity Assay % Fluor (Clone V cells): 96.89%; Toxicity Assay Z-score (Clone V cells): -0.43
O=c1[nH]nc(Sc2ncc([N+](=O)[O-])s2)n1-c1ccc2c(c1)OCCO2 [JNK INHIBITOR X],–,–,–,–,–,–,–,–,–,"Luciferase Assay % Lum (full-length luciferase counter-screen) [1, 6]: 4.80%; Luciferase Assay Z-score (full-length luciferase counter-screen) [1, 6]: -12.19; Toxicity Assay % Fluor (CTB cell viability fluorescence) (Clone V cells): 82.79%; Toxicity Assay Z-score (CTB cell viability) (Clone V cells): -2.41; Split Luciferase Assay Z-score Set 1 ([2]; CC_NCI screening): -7.97; Split Luciferase Assay % Lum Set 1 ([2]; CC_NCI screening): 1.41%; Split Luciferase Assay Z-score Set 2 ([2]; CC_NCI screening): -7.88; Split Luciferase Assay %Lum Set 2 ([2]; CC_NCI screening): 3.12%; Split Luciferase Assay %Lum Avg [2]: 2.27%"
O=c1cc(-c2cccc3c2Sc2ccccc2S3)oc(N2CCOCC2)c1 [KU-55933],33.90,-8.46,89.20,-1.51,69.90,81.14,-2.43,-1.53,75.52,–
CS(=O)(=O)CCNCc1ccc(-c2ccc3ncnc(Nc4ccc(OCc5cccc(F)c5)c(Cl)c4)c3c2)o1 [Lapatinib],–,–,–,–,–,–,–,–,–,Luciferase Assay % Lum (full-length luciferase counter-screen) [1]: 75.39%; Luciferase Assay Z-score (full-length luciferase counter-screen) [1]: -3.15; Toxicity Assay % Fluor (CTB cell viability fluorescence) (Clone V cells): 114.10%; Toxicity Assay Z-score (CTB cell viability) (Clone V cells): 1.97; Split Luciferase Assay Z-score Set 1 ([2]; CC_NCI screening): 1.35; Split Luciferase Assay Z-score Set 2 ([2]; CC_NCI screening): -1.87; Split Luciferase Assay %Lum Set 2 ([2]; CC_NCI screening): 76.98%; Split Luciferase Assay %Lum Avg [2]: 96.81%
CN(C)C(=N)N=C(N)N [METFORMIN],–,–,91.06,-1.25,117.73,114.43,1.43,1.17,116.08,Luciferase Assay % Lum [1]: 96.22%; Luciferase Assay Z-score [1]: -0.48
